Entries after “also recorded” stand apart in the source; their conditions may differ.
Key:
H1N1 = assay: NMN and NR on influenza virus pulmonary infection in mice (Example 7); type: in vivo; settings: H1N1 infected mice; for Remaining mice, Day 11 / Remaining mice, Day 14: 12 per group, loss of 25% or more bodyweight counted as dead; for Remaining mice, Day 11 / Remaining mice, Day 14 / survival rate at the end of the experiment: I-A or I-G 185 mg/kg i.p. daily, Tamiflu 2x1 mg/kg oral; for body weight loss in comparison to vehicle: I-A or I-G 185 mg/kg, Tamiflu 2 mg/kg, D0 to D14
Procedure: The compounds I-A and I-G were delivered by intraperitoneal route at 185 mg/kg daily during all the experiment. 72 mice were daily weighed to adapt the volume of compounds. Physiological buffer was used as control and was administrated by i.p once per day during all the experiment. Control animals were orally administrated with Tamiflu at 2 mg/kg during all the experiment. Each animal has been infected with H1N1. The experimental groups are as follows: • vehicle: H1N1 infection+physiological buffer • Tamiflu: H1N1 infection+Tamiflu (2×1 mg/kg) • Compound I-A: H1N1 infection+NMN (185 mg/kg) • Compound I-G: H1N1 infection+NR (185 mg/kg) • Tamiflu+Compound I-A: H1N1 infection+Tamiflu (2×1 mg/kg)+Compound I-A (185 mg/kg) • Tamiflu+Compound I-G: H1N1 infection+Tamiflu (2×1 mg/kg)+Compound I-G (185 mg/kg)
Survival rates, body weight and clinical scores were monitored during all the experiment.
Survival rates (FIG. 7): Animals which lost 25% or more bodyweight, were euthanized for ethical reasons and considered as dead. Survival rates were monitored during all the experiment. […]
Respiratory scoring (FIG. 10): the respiratory scoring was assessed according to the following criteria: […]

[1] = tested on: Influenza virus H1N1 PR/8/34; assay: Murine influenza virus H1N1 PR/8/34 pulmonary infection, lethal dose (Example 2); type: in vivo, mice; settings: for body weight evolution D0 to D14 in comparison to vehicle / clinical score / clinical states of the mice D0 to D14: 500 PFU H1N1, I-A 185 mg/kg i.p., Tamiflu 1 mg/kg oral twice a day; for viral load in lung: 8 days after infection with 500 PFU of influenza A virus, vs vehicle group; for survival rate at D14: mice infected intranasally with 500 PFU H1N1 PR/8/34, Tamiflu 1 mg/kg oral gavage twice a day, D0-D14
[2] = tested on: Influenza virus H1N1 PR/8/34 strain; assay: Compound I-A dose-response on influenza virus pulmonary infection (Example 8); type: in vivo, mice; settings: for Remaining mice, Day 10 / Remaining mice, Day 14: 500 PFU H1N1 PR/8/34, 12 mice; for viral load in lung: 8 days after infection with 500 PFU of influenza A virus
Procedure: The model consists in intranasal administration of 500 PFU of Influenza virus H1N1 PR/8/34 strain to induce pneumonia. Compound I-A was delivered by intraperitoneal (i.p.) route at 90, 185 or 500 mg/kg immediately after infection and then daily during all the experiment. Mice were daily weighed to adapt the volume of compounds. Physiological buffer was used as control and was administrated by i.p once per day during all the experiment. Each experimental group comprises 22 mice: 12 mice for the survival study, 5 mice of the flow cytometry analysis and 5 mice for the assessment of viral load.
The experimental groups are the following: • Group 1: Vehicle (i.p.) • Group 2: Compound I-A 90 mg/kg • Group 3: Compound I-A 185 mg/kg • Group 4: Compound I-A 500 mg/kg
At day 8, 5 mice per group are use to measure the following parameters. • Blood collection: 3 aliquots (a, b and c) a)+ac. perchlorique (NAD dosage) b) immune cell characterization (cytometry) c) remaining plasma->freezing • Lung and lymph nodes collection, cell preparation, counting and immune cell characterization (cytometry) • Remaining cells (if any) from the 2 tissues treated for RNAseq • Viral load in the lungs (5 mice per group)
Survival rates, body weight, clinical scores, viral load in lungs and quantification of subsets of immune population in lung, blood and draining lymph node at day 8 post-infection by flow cytometry were monitored during all the experiment.
Survival (FIG. 11): Animals which lost 25% or more bodyweight, were euthanized for ethical reasons and considered as dead. Survival rates were monitored during all the experiment. […]

[3] = I-A 90, 185 or 500 mg/kg i.p. daily

NC(=O)c1ccc[n+]([C@@H]2O[C@H](COP(=O)(O)O)[C@@H](O)[C@H]2O)c1 [Compound I-A, Nicotinamide mononucleotide]
Remaining mice, Day 11 (H1N1): 7/12 | Remaining mice, Day 14 (H1N1): 7/12 | survival rate at the end of the experiment (H1N1): 58% | body weight loss in comparison to vehicle (H1N1): decrease the body weight loss | body weight evolution D0 to D14 in comparison to vehicle [1]: slight improvement | clinical score / clinical states of the mice D0 to D14 [1]: significantly improved clinical states | viral load in lung [1]: no impact | H1N1 induced lymphopenia in blood (T cells levels) ([1]; D8, cytometry on blood): reduced H1N1 induced lymphopenia | recruitment of monocyte-derived macrophages and dendritic cells and CD8+ T cells in infected lungs ([1]; D8 post-inoculation, cytometry on lung): reduced the recruitment | circulating monocytes ([1]; D8 post-inoculation, in comparison to vehicle and oseltamivir-treated animals): decreased circulating monocytes | animal mortality / efficacy on survival ([1]; I-A 185 mg/kg i.p. once a day, compared to untreated control animals or oseltamivir, 185 mg/kg): reduce animal mortality; also recorded: more effective than oseltamivir | survival rate at D14 ([1]; I-A 185 mg/kg i.p. once a day): 67% | mice survival rate ([2]; I-A 90 mg/kg i.p. daily): 33% | Remaining mice, Day 10 ([2]; I-A 90 mg/kg i.p. daily): 8/12 | Remaining mice, Day 14 ([2]; I-A 90 mg/kg i.p. daily): 4/12 | viral load in lung ([2]; I-A 90 mg/kg): no significative impact | mice survival rate ([2]; I-A 185 mg/kg i.p. daily): 58% | Remaining mice, Day 10 ([2]; I-A 185 mg/kg i.p. daily): 12/12 | Remaining mice, Day 14 ([2]; I-A 185 mg/kg i.p. daily): 7/12 | viral load in lung ([2]; I-A 185 mg/kg): no significative impact | mice survival rate ([2]; I-A 500 mg/kg i.p. daily): 75% | Remaining mice, Day 10 ([2]; I-A 500 mg/kg i.p. daily): 10/12 | Remaining mice, Day 14 ([2]; I-A 500 mg/kg i.p. daily): 9/12 | viral load in lung (quantity of H1N1 particles) ([2]; I-A 500 mg/kg, 8 days after infection, in comparison to the vehicle group): significantly reduced the quantity of H1N1 particles | body weight in comparison to vehicle (D3-D8) [2, 3]: weak improvement | clinical scores / clinical states of the mice compared to vehicle group [2, 3]: improved clinical states | modulation of the recruitment of monocyte derived macrophages ([2]; lung, day 8, flow cytometry): not observed | number of CD11b+DC ([2]; lung, day 8, flow cytometry): tended to be reduced | proportion of CD206+ macrophages ([2]; lung, day 8, flow cytometry): increased | destruction of alveolar macrophages due to the infection ([2]; lung, day 8, flow cytometry, effect did not seem dose dependent): reduced

NC(=O)c1ccc[n+]([C@@H]2O[C@H](CO)[C@@H](O)[C@H]2O)c1 [Compound I-G, NICOTINAMIDE RIBOSIDE]
Remaining mice, Day 11 (H1N1): 6/12 | Remaining mice, Day 14 (H1N1): 6/12 | survival rate at the end of the experiment (H1N1): 50% | body weight loss in comparison to vehicle (H1N1): decrease the body weight loss

CCOC(=O)C1=C[C@@H](OC(CC)CC)[C@H](NC(C)=O)[C@@H](N)C1 [Tamiflu, oseltamivir, reference compound]
Remaining mice, Day 11 (H1N1): 8/12 | Remaining mice, Day 14 (H1N1): 6/12 | survival rate at the end of the experiment (H1N1): 50% | body weight loss in comparison to vehicle (H1N1): decrease the body weight loss | body weight evolution D0 to D14 in comparison to vehicle [1]: slight improvement | clinical score / clinical states of the mice D0 to D14 [1]: significantly improved clinical states | viral load in lung [1]: no impact | survival rate at D14 ([1]; I-A 185 mg/kg i.p. once a day): 58%
